Converted amounts (≈) assume the structure as drawn.
Test system: not listed separately
Experiment: Clearance in human hepatocytes assessed per million cells
Type: ADME, cell-based, Hepatocyte
Settings: read-out: CLH

| SMILES | hepatocyte CLint |
| --- | --- |
| COc1cc(N2C[C@H]3CC[C@@H](C2)[C@@H]3Nc2nc3n(n2)CCCCC3c2ccc(F)c(F)c2F)ccn1 (mixture of isomers) | 6 µL/min/1e6 cells |
| Fc1ccc(C2CCCCn3nc(N[C@@H]4[C@@H]5CC[C@H]4CN(c4cc(Cl)ncn4)C5)nc32)c(F)c1F (mixture of isomers) | 2.6 µL/min/1e6 cells |

Test system: not listed separately
Experiment: Solubility of compound by LYSA assay
Type: physicochemical
Settings: not given

| SMILES | solubility |
| --- | --- |
| COc1cc(N2C[C@H]3CC[C@@H](C2)[C@@H]3Nc2nc3n(n2)CCCCC3c2ccc(F)c(F)c2F)ccn1 (mixture of isomers) | 3.2 µg/mL (≈ 6.42 µM) |
| Fc1ccc(C2CCCCn3nc(N[C@@H]4[C@@H]5CC[C@H]4CN(c4cc(Cl)ncn4)C5)nc32)c(F)c1F (mixture of isomers) | < 0.3 µg/mL |

Target: P-gp (ABCB1) (Homo sapiens, UniProt P08183)
Sequence (P08183 whole entry): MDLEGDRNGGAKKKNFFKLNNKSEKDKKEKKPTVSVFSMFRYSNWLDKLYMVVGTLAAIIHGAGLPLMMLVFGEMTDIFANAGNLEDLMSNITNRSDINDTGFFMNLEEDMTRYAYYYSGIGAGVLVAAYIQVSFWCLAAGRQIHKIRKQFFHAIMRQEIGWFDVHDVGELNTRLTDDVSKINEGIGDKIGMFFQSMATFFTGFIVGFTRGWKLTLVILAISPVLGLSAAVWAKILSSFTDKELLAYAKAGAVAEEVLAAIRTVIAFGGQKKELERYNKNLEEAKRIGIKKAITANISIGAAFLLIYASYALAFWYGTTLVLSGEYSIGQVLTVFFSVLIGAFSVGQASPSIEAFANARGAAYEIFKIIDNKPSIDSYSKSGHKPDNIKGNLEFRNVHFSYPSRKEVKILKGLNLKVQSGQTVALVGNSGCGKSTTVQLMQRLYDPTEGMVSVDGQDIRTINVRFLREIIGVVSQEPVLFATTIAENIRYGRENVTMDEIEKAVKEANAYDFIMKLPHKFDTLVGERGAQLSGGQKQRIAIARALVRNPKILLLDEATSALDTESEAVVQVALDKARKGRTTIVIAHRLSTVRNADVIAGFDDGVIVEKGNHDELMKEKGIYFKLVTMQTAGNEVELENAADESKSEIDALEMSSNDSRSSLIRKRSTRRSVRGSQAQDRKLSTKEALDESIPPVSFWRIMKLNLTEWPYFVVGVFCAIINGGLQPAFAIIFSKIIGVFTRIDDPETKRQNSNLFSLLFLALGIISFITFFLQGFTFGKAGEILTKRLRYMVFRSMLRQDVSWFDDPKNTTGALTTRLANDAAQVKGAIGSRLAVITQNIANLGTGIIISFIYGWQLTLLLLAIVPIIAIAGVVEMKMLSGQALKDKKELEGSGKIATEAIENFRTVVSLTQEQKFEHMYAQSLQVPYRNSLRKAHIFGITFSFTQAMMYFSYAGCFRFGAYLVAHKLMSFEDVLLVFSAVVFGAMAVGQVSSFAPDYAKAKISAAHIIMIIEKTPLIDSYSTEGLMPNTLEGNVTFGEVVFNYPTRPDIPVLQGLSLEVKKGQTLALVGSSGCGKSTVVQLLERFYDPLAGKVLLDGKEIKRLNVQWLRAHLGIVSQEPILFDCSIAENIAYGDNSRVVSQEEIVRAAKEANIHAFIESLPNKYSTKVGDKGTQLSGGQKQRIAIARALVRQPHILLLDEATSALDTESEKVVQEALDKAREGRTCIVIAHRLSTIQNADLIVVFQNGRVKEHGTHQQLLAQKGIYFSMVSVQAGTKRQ
Experiment: Substrate activity at human P-gp assessed as efflux ratio
Type: ADME
Settings: not told

| SMILES | efflux ratio |
| --- | --- |
| COc1cc(N2C[C@H]3CC[C@@H](C2)[C@@H]3Nc2nc3n(n2)CCCCC3c2ccc(F)c(F)c2F)ccn1 (mixture of isomers) | 1.2 |
| Fc1ccc(C2CCCCn3nc(N[C@@H]4[C@@H]5CC[C@H]4CN(c4cc(Cl)ncn4)C5)nc32)c(F)c1F (mixture of isomers) | 1.5 |

Target: Gamma-secretase
Experiment: Modulation of gamma secretase in human H4 cells overexpressing human APP695 harboring K595N/M596L Swedish double mutant assessed as reduction in total amyloid beta (1 to 42 residues) production measured after 24 hrs by AlphaLISA assay
Type: cell-based
Settings: not given

| SMILES | IC50 |
| --- | --- |
| COc1cc(N2C[C@H]3CC[C@@H](C2)[C@@H]3Nc2nc3n(n2)CCCCC3c2ccc(F)c(F)c2F)ccn1 (mixture of isomers) | 14 nM |
| Fc1ccc(C2CCCCn3nc(N[C@@H]4[C@@H]5CC[C@H]4CN(c4cc(Cl)ncn4)C5)nc32)c(F)c1F (mixture of isomers) | 14 nM |
